Data as given in the NIST ThermoML archive (doi:10.1016/j.jct.2005.07.019).

Experiment: mn = molality of the nth substance listed, in mol/kg
Details: 350 kPa, Liquid, Extra sensitive DSC

N[C@@H](CO)C(=O)O [L-serine] + O
apparent molar heat capacity [J/K/mol]
Details | m1 = 0.015 | m1 = 0.0302 | m1 = 0.05 | m1 = 0.08 | m1 = 0.1249 | m1 = 0.2501 | m1 = 0.3717 | m1 = 0.7002 | m1 = 1.001
278.15 K | 58.9 | 59.2 | 58.9 | 60.7 | 62.4 | 67.93 | 72.64 | 84.65 | 94.04
283.15 K | 78.9 | 79.3 | 79.2 | 80.6 | 82.1 | 86.36 | 90.3 | 99.99 | 108.37
288.15 K | 94.8 | 95.4 | 95.2 | 96.5 | 97.7 | 101.28 | 104.58 | 112.69 | 120.13
293.15 K | 108 | 108.7 | 108.4 | 109.5 | 110.5 | 113.56 | 116.4 | 123.33 | 129.97
298.15 K | 118.7 | 119.4 | 119.2 | 120.1 | 120.9 | 123.63 | 126.11 | 132.2 | 138.25
303.15 K | 127.9 | 128.6 | 128.4 | 129.2 | 129.9 | 132.24 | 134.43 | 139.82 | 145.45
308.15 K | 135.6 | 136.4 | 136.2 | 136.9 | 137.5 | 139.63 | 141.58 | 146.36 | 151.62
313.15 K | 142.6 | 143.1 | 142.9 | 143.5 | 144.1 | 145.98 | 147.77 | 152.15 | 157.1
318.15 K | 148.7 | 148.9 | 148.6 | 149.2 | 149.7 | 151.4 | 153.04 | 157.06 | 161.73
323.15 K | 153.9 | 154.1 | 153.8 | 154.2 | 154.6 | 156.2 | 157.74 | 161.47 | 165.95
328.15 K | 158.6 | 158.6 | 158.3 | 158.7 | 159 | 160.4 | 161.86 | 165.32 | 169.63
333.15 K | 163.4 | 163.1 | 162.2 | 162.6 | 162.9 | 164.2 | 165.59 | 168.83 | 173.01
338.15 K | 167.3 | 166.8 | 165.8 | 166.2 | 166.4 | 167.6 | 168.91 | 172 | 176.07
343.15 K | 170.4 | 169.9 | 168.8 | 169 | 169.3 | 170.5 | 171.75 | 174.71 | 178.65
348.15 K | 173.7 | 172.4 | 171.4 | 171.6 | 171.9 | 173.1 | 174.28 | 177.14 | 181.02
353.15 K | 176 | 174.9 | 173.8 | 174 | 174.3 | 175.4 | 176.6 | 179.33 | 183.15
358.15 K | 178 | 176.9 | 176 | 176 | 176.4 | 177.4 | 178.6 | 181.28 | 185.03
363.15 K | 179 | 178.4 | 177.6 | 177.7 | 178.1 | 179.1 | 180.3 | 182.94 | 186.63
368.15 K | 181 | 179.7 | 178.9 | 179 | 179.6 | 180.6 | 181.8 | 184.38 | 188
373.15 K | 181 | 180.9 | 180.2 | 180.1 | 180.7 | 181.8 | 183 | 185.63 | 189.22
378.15 K | 181 | 181.7 | 181 | 180.7 | 181.7 | 182.9 | 183.9 | 186.55 | 190.12
383.15 K | 182 | 182.2 | 181.8 | 181.3 | 182.4 | 183.8 | 184.8 | 187.46 | 190.98
388.15 K | 183 | 182.6 | 182.7 | 181.4 | 183 | 184.4 | 185.4 | 188.07 | 191.6
393.15 K | 183 | 182.6 | 183.3 | 181.2 | 183.4 | 184.8 | 185.7 | 188.6 | 192.04
